Reference: ChEMBL document CHEMBL1201862, “PubChem BioAssay data set” (2004)
The source made the active and inactive calls.

Legend:
[1] = molecular target: T1, Microphthalmia-associated transcription factor (Homo sapiens, UniProt O75030); assay: reducers of TRPM1 reporter luminescence, concentration series – cell-based, SK-MEL-5, cherry-picked, set 3, MITF inhibitor project, dose response (AID 493073); type: functional;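 note: SK-MEL-5 melanoma cells with luciferase driven by the MITF target TRPM1 promoter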
T1 sequence (O75030 whole entry): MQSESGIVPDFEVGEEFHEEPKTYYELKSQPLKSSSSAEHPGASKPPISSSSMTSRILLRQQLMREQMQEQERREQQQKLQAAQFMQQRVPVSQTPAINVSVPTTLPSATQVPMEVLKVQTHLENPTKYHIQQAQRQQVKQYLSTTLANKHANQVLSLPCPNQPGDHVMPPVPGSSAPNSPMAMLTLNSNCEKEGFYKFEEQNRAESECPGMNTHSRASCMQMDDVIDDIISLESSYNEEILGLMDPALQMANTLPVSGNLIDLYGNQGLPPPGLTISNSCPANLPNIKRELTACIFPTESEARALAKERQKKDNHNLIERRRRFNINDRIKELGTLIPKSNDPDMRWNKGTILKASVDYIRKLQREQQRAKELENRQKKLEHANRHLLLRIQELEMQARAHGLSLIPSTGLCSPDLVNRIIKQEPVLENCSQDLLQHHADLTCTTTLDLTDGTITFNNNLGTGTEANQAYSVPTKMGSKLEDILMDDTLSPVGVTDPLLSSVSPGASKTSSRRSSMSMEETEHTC

Aspartyl aminopeptidase = molecular target: T2, Aspartyl aminopeptidase (Plasmodium falciparum 3D7, UniProt Q8I2J3)
T2 sequence (Q8I2J3 whole entry): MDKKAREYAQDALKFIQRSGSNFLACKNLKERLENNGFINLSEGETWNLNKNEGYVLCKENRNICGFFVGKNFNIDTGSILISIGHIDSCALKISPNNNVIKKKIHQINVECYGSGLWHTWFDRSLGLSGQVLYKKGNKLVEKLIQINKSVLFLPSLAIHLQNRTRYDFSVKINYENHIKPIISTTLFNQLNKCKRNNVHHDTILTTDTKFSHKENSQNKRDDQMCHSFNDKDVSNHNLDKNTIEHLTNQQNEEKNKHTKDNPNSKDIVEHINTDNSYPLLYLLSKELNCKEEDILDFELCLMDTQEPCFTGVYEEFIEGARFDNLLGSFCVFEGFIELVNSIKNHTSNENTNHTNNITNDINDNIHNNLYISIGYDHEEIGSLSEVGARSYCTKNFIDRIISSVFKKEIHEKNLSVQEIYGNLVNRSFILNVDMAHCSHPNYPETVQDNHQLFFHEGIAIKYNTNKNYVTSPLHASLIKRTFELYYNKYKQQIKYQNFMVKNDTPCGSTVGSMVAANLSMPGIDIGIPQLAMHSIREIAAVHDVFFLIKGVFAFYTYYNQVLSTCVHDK

Procathepsin L = Procathepsin L (Homo sapiens, UniProt P07711)
[2] = molecular target: T3, Replicative DNA helicase DnaB (Mycobacterium tuberculosis, UniProt P9WMR3); assay: DnaB intein splicing inhibitors, dose response, biochemical, cell-free fluorescence (AID 449749); type: functional
T3 sequence (P9WMR3 whole entry): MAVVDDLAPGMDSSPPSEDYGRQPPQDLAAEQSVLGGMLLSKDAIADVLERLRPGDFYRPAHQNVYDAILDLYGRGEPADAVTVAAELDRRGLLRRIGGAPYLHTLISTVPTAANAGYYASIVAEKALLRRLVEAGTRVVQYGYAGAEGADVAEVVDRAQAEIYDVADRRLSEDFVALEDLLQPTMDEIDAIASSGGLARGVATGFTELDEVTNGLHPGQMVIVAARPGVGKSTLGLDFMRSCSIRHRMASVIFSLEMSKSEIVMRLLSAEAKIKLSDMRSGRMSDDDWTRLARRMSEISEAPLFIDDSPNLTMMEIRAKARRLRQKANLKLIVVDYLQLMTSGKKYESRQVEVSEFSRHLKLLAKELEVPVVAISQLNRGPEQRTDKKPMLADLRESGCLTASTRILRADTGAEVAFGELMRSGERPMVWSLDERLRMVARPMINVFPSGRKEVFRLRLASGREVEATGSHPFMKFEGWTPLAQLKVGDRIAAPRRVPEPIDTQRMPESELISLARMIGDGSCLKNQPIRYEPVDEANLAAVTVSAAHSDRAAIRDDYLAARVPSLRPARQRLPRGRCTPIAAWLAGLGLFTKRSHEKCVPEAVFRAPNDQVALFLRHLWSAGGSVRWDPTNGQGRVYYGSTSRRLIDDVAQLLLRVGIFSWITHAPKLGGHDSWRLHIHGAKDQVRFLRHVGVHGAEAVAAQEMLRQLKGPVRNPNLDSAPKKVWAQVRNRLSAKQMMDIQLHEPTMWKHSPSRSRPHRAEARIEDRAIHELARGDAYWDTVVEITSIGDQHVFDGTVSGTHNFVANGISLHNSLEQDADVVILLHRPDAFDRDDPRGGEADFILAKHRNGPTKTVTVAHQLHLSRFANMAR

Protein RecA = molecular target: T4, Protein RecA (Mycobacterium tuberculosis, UniProt P9WHJ3); assay: Fluorescence Cell-Free Homogeneous Dose Retest to Identify Inhibitors of RecA-Intein Splicing Activity. [Related pubchem assays (depositor defined):AID2097, AID2223, AID489010, AID492950]; type: functional
T4 sequence (P9WHJ3 whole entry): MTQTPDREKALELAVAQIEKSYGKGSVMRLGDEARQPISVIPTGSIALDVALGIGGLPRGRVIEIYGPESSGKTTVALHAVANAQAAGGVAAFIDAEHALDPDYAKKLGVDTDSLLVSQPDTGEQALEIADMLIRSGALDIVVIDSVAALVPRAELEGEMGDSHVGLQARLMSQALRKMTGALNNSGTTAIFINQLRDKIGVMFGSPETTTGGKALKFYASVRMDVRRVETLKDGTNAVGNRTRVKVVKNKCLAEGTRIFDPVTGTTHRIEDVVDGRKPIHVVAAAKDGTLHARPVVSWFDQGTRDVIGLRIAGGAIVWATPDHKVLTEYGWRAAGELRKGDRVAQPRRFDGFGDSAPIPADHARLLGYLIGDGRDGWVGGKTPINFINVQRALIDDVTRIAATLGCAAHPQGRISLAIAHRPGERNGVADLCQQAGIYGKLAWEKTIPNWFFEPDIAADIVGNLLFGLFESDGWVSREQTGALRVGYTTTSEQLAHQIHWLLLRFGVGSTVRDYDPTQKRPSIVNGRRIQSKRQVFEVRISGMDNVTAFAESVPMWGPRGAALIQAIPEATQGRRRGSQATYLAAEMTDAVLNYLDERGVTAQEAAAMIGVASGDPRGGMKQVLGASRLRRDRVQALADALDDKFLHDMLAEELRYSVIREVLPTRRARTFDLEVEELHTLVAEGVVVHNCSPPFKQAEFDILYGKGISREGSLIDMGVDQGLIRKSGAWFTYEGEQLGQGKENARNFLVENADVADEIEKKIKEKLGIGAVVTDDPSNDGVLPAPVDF

[3] = A cytotoxicity screen of small molecule inhibitors of the PhoP region in Salmonella typhi identified in the primary screen. [Related pubchem assays: 1850, 1864, 1985 ]; type: functional
[4] = molecular target: Voltage-dependent T-type calcium channel subunit alpha-1H (Homo sapiens, UniProt O95180); type: functional;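 note: channel activity triggered by adding a high calcium stimulation buffer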
[5] = molecular target: T5, Ubiquitin-conjugating enzyme E2 N (Homo sapiens, UniProt P61088); type: functional;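 note: Dose-response confirmation in a TR-FRET assay detecting UBC13-driven polyubiquitin chain formation, inhibition measured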
T5 sequence (P61088 whole entry): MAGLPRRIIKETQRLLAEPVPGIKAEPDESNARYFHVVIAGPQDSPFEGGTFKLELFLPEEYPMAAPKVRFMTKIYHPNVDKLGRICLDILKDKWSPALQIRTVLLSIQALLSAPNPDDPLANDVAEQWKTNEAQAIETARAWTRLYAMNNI

[6] = molecular target: Photoreceptor-specific nuclear receptor (Homo sapiens, UniProt Q9Y5X4); type: functional;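 note: potency for compounds that break the NR2E3 corepressor complex and count as activators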
[7] = molecular target: Peroxisome proliferator-activated receptor gamma/Nuclear receptor corepressor 2 (Homo sapiens, UniProt P37231+Q9Y618); type: functional
Insulin-degrading enzyme = molecular target: T6, Insulin-degrading enzyme (Homo sapiens, UniProt P14735); assay: Dose Response: Fluorescence polarization-based cell-based high throughput dose response assay for inhibitors of insulin-degrading enzyme (IDE). [Related pubchem assays: 434962 (Primary screen (IDE inhibitors in singlicate)), 449730 (Counterscreen (Cytotoxicity in triplicate)), 435028 (Confirmation (IDE inhibitors in triplicate)), 434984 (Summary …; type: functional
T6 sequence (P14735 whole entry): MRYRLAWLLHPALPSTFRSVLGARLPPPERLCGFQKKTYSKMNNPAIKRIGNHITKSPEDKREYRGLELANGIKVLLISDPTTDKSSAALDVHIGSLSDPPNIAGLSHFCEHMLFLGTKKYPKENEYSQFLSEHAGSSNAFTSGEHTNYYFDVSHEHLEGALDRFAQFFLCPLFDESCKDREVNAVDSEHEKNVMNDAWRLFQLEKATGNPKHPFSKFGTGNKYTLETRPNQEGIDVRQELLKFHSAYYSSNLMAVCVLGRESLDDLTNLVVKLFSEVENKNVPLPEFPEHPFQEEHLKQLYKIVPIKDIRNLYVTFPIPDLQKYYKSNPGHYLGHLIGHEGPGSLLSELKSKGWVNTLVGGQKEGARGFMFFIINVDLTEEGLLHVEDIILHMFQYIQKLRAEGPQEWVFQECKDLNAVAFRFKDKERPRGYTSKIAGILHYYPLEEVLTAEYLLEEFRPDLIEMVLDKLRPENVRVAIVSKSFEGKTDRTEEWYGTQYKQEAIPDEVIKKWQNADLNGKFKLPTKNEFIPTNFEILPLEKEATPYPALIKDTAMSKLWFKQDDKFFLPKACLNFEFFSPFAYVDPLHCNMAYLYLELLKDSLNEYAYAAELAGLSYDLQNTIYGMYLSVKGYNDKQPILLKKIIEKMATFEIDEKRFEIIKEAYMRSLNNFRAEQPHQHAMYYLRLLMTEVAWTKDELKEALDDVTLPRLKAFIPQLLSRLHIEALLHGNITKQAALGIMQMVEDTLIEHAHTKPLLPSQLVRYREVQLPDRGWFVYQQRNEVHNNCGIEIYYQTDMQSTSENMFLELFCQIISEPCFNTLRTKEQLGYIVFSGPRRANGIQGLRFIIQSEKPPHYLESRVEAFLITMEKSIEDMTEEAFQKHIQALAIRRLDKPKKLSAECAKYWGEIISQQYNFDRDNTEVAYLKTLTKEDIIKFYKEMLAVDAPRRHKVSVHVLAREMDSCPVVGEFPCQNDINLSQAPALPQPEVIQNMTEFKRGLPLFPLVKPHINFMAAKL

Streptokinase A = molecular target: T7, Streptokinase A (Streptococcus pyogenes serotype M1, UniProt P10520); assay: viability-normalized secreted streptokinase activity reduction – plasminogen activation absorbance, OD405, dose response (AID 1914); type: functional, Streptococcus pyogenes M1 GAS;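 note: secreted streptokinase activity via plasminogen activation per viability signal from cell pellet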
T7 sequence (P10520 whole entry): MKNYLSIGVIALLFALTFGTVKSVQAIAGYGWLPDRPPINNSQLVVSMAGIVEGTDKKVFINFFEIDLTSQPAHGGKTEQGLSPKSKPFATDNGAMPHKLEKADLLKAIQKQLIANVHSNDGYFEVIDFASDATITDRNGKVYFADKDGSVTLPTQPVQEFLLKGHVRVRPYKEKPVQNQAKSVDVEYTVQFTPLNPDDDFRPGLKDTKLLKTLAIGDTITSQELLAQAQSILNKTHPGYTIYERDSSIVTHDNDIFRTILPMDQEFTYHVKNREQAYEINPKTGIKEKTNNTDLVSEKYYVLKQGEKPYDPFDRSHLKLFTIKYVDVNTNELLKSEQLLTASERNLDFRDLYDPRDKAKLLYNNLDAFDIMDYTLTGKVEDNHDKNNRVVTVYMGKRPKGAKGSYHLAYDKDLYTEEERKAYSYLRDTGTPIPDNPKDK

[8] = test system: Streptococcus sp. 'group A'; assay: Streptococcus pyogenes SK(-)GAS viability under kanamycin – luminescence, BacTiterGlo, confirmation, counter-screen for streptokinase expression inhibitor project, dose response (AID 1900); type: functional, organism-based
Streptococcus = assay: GAS UMAA2166 growth inhibition – luminescence, BacTiterGlo, counter-screen for streptokinase expression inhibitor project, dose response (AID 1915); type: functional, organism-based;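 note: potency for reduction of bacterial viability or growth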
[9] = Counterscreen for IDE inhibitors: Luminescence-based cell-based high throughput dose response assay to identify compounds that are cytotoxic to HEK cells. [Related pubchem assays: 434962 (Primary screen (IDE inhibitors in singlicate)), 449730 (Counterscreen (Cytotoxicity in triplicate)), 435028 (Confirmation (IDE inhibitors in triplicate)) …; type: functional; details: HEK293
HeLa = assay: viability loss in HeLa cells – cell-based, 24 h, cherry-picked samples, cytotoxicity control, dose response (AID 504726); type: functional; details: Homo sapiens;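 note: potency for cytotoxicity as loss of luminescence signal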

Chain of Voltage-dependent T-type calcium channel subunit alpha-1H (O95180 whole entry): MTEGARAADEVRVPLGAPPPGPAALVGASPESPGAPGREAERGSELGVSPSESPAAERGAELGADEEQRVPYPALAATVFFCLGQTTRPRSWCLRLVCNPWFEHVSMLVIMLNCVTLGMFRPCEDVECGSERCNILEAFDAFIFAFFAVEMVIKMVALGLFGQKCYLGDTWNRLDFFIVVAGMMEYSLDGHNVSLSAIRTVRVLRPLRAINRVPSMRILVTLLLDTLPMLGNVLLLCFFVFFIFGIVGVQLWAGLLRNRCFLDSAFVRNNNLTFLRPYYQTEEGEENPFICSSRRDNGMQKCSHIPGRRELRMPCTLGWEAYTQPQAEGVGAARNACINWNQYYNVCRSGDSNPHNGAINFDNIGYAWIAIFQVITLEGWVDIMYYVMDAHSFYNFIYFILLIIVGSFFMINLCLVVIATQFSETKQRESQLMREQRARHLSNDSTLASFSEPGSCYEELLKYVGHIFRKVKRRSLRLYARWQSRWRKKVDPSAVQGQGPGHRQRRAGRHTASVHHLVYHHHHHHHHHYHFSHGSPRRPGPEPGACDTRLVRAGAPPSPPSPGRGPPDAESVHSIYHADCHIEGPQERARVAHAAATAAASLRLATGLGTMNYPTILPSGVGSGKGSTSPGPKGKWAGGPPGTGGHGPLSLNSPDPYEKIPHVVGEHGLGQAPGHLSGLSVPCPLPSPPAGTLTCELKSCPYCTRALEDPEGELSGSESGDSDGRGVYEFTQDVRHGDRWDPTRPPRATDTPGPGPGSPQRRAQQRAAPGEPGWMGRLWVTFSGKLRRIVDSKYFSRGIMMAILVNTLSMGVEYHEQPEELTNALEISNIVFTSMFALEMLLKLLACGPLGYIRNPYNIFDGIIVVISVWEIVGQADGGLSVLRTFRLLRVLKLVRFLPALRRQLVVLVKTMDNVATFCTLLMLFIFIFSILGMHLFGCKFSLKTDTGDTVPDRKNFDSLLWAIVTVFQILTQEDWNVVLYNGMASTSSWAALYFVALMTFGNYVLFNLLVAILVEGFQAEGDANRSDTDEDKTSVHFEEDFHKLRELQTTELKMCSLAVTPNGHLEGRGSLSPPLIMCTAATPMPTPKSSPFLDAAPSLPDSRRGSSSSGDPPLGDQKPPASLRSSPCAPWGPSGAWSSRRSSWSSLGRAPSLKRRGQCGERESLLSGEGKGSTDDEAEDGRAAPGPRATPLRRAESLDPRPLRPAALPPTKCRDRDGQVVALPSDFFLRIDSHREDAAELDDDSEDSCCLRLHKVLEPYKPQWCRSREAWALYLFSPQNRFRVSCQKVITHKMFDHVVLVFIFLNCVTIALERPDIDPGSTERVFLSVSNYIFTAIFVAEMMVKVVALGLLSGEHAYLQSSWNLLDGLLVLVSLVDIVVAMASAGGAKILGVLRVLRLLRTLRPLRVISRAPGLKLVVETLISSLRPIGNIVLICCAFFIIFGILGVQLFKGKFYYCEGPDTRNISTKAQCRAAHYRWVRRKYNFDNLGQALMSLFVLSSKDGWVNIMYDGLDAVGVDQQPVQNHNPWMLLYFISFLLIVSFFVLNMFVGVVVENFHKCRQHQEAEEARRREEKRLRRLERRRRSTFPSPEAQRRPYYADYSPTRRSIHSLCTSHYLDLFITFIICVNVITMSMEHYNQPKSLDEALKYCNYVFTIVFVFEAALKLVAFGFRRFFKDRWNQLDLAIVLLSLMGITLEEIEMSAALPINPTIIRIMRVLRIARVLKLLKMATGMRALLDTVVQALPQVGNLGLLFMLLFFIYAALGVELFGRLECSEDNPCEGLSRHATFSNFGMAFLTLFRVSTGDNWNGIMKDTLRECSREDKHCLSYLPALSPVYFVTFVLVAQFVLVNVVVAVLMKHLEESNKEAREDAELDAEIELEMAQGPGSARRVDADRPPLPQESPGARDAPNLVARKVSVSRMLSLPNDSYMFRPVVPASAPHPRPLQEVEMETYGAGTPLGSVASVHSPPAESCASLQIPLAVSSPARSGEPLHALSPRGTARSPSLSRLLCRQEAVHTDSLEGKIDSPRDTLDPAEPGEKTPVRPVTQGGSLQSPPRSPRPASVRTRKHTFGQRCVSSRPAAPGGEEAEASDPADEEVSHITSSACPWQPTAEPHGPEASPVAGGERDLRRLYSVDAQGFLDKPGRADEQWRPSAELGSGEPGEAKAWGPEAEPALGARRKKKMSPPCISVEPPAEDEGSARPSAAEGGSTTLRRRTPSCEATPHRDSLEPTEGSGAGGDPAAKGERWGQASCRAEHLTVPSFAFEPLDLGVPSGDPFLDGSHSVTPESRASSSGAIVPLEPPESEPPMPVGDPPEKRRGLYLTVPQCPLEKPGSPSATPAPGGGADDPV
Chain of Procathepsin L (P07711 whole entry): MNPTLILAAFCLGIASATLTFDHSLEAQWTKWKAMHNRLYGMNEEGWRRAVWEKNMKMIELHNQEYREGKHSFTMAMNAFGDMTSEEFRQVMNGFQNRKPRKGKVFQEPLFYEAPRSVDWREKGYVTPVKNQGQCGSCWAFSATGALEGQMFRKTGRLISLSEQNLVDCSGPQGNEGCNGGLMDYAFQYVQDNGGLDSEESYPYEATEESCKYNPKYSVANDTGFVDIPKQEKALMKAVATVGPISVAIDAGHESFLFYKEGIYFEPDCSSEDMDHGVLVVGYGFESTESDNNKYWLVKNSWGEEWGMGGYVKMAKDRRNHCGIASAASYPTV
Chain of Photoreceptor-specific nuclear receptor (Q9Y5X4 whole entry): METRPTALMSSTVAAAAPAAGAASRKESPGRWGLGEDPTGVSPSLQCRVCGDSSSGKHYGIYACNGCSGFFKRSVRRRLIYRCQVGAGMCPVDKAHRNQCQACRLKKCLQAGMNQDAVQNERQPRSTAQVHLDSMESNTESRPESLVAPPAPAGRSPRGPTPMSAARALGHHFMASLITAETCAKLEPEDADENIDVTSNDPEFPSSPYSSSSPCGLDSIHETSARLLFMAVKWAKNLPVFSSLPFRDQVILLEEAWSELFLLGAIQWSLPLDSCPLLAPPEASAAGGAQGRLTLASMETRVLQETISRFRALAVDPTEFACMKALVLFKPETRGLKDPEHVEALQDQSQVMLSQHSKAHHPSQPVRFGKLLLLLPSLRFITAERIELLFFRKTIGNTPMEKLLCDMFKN

## CC1=NNC(=O)/C1=C\c1cn(-c2ccccc2)nc1-c1ccc(F)cc1
[1]
  AC50: 6.52 µM (active)
Aspartyl aminopeptidase
  IC50: 0.71 µM (active)
Procathepsin L
  IC50: > 59.6 µM (not active)
[2]
  AC50: 3.69 µM (active)
Protein RecA
  EC50: 1.35 µM (active)

## CCCCCC(=O)NC(=S)NNC(=O)CC
[3]
  EC50: > 50 µM (active)

## COc1cc(C(=O)Nc2ccc3c(c2)OCCO3)ccc1OC(C)C
[3]
  EC50: > 50 µM (active)

## CN(Cc1ccccc1)C(=O)CCSc1nc(-c2ccc3c(c2)OCO3)cc(C(F)(F)F)n1
[4]
  EC50: 4.53 µM (active)
[5]
  IC50: > 20 µM (inactive)

## CCOc1ccccc1NC(=O)CSc1nc(N)c(C#N)cc1C#N
[6]
  IC50: > 39.8 µM (not active)
[7]
  IC50: 3.03 µM (active)

## Cc1ccc(/C=C/C(=O)NC(=S)Nc2ccc(S(=O)(=O)Nc3cc(C)on3)cc2)cc1
Insulin-degrading enzyme
  IC50: 9.71 µM (active)
Streptokinase A
  EC50: 27.1 µM (inconclusive)
[8]
  EC50: 9.56 µM (active)
Streptococcus
  EC50: 62.4 µM (active)
[9]
  IC50: > 55.7 µM (not active)

## O=C1c2ccccc2C(=O)N1Cc1ccc2c(c1)OCO2
HeLa
  AC50: 42.5 µM (active)

## COc1ccc(NC(=O)NNC(=O)CCc2ccc(O)c(O)c2)cc1OC
Aspartyl aminopeptidase
  IC50: 2.51 µM (active)
Procathepsin L
  IC50: > 59.6 µM (not active)

## O=C(Nc1ccc(S(=O)(=O)N2CCc3ccccc3C2)cc1)C1CCCO1 (configuration not stated)
[4]
  EC50: 3.27 µM (active)

## Cc1cccc(N2CCN(C(=O)c3cccc(N4C(=O)C5C6C=CC(C6)C5C4=O)c3)CC2)c1C (configuration not stated)
Insulin-degrading enzyme
  IC50: 6.73 µM (active)
[9]
  IC50: 17.4 µM (not active)
